This passage reports Average particle size results from patent publication US8211470B2, “Method for preparing nano-scale or amorphous particle using solid fat as a solvent” (Bio-Synectics Inc., priority 2003, dated 2012).

This data set is described as follows: Particle size of the final powder dispersed in distilled water, particle size analyzer (Mastersizer Microplus). It counts as physicochemical. On the procedure: Next, the pressure inside the collecting reactor containing the sprayed solid powders was elevated to about 150 atm by adding carbon dioxide gas into the collecting reactor. The pressure inside the collecting reactor was constantly maintained to the pressure of 100 atm or more by controlling a vent valve of the collecting reactor, while continuously adding the carbon dioxide gas. Under the constantly maintained pressure, the cetyl alcohol used as a solid fat was extracted for 8 hours with the gas of the supercritical fluid to obtain 1.8 g of fat-removed fine solid particles. The particle size of the obtained powdered mixture was determined by a particle size analyzer (Mastersizer Microplus) by dispersing the obtained powdered mixture into distilled water, and the result was shown in Table 1.
30 g of cetyl alcohol and 2 g of ketoconazole were placed into a 250 ml volume beaker and heated to 80° C. with stirring until the mixture became completely melt to form a transparent liquid. After completely melting the mixture, additional stirring for about 10 minutes was further carried out for homogeneous mixing. Then, the melted mixture was poured into a stainless steel plate which was precooled to 10° C. or less for rapid cooling and solidifying, thereby obtaining the solid product in which the active ingredient was dispersed uniformly into the fat in the form of fine particles. […]

For `CC(=O)N1CCN(c2ccc(OCC3COC(Cn4ccnc4)(c4ccc(Cl)cc4Cl)O3)cc2)CC1` (stereo not shown) [Raw material (Active ingredient), ketoconazole], the Average particle size came out at 10.41 μm.
